Where “and” joins values, the source holds several entries; their conditions need not be identical. Identical values can stand only once. Like-named read-outs stand apart in the source and are kept apart here.
How the values were obtained:
[1] = biological target: hNav1.4 (Homo sapiens, UniProt P35499); test: cell-based; conditions: for IC50: PatchXpress, read-out: PX hNav1.4 Tonic IC50
[2] = biological target: hNav1.5 (Homo sapiens, UniProt Q14524); test: cell-based; conditions: for IC50: PatchXpress, read-out: PX hNav1.5 Tonic IC50
[3] = * = at high concentrations compound would wash off slowly or not at all

Sequence of hNav1.5 (Q14524 whole entry): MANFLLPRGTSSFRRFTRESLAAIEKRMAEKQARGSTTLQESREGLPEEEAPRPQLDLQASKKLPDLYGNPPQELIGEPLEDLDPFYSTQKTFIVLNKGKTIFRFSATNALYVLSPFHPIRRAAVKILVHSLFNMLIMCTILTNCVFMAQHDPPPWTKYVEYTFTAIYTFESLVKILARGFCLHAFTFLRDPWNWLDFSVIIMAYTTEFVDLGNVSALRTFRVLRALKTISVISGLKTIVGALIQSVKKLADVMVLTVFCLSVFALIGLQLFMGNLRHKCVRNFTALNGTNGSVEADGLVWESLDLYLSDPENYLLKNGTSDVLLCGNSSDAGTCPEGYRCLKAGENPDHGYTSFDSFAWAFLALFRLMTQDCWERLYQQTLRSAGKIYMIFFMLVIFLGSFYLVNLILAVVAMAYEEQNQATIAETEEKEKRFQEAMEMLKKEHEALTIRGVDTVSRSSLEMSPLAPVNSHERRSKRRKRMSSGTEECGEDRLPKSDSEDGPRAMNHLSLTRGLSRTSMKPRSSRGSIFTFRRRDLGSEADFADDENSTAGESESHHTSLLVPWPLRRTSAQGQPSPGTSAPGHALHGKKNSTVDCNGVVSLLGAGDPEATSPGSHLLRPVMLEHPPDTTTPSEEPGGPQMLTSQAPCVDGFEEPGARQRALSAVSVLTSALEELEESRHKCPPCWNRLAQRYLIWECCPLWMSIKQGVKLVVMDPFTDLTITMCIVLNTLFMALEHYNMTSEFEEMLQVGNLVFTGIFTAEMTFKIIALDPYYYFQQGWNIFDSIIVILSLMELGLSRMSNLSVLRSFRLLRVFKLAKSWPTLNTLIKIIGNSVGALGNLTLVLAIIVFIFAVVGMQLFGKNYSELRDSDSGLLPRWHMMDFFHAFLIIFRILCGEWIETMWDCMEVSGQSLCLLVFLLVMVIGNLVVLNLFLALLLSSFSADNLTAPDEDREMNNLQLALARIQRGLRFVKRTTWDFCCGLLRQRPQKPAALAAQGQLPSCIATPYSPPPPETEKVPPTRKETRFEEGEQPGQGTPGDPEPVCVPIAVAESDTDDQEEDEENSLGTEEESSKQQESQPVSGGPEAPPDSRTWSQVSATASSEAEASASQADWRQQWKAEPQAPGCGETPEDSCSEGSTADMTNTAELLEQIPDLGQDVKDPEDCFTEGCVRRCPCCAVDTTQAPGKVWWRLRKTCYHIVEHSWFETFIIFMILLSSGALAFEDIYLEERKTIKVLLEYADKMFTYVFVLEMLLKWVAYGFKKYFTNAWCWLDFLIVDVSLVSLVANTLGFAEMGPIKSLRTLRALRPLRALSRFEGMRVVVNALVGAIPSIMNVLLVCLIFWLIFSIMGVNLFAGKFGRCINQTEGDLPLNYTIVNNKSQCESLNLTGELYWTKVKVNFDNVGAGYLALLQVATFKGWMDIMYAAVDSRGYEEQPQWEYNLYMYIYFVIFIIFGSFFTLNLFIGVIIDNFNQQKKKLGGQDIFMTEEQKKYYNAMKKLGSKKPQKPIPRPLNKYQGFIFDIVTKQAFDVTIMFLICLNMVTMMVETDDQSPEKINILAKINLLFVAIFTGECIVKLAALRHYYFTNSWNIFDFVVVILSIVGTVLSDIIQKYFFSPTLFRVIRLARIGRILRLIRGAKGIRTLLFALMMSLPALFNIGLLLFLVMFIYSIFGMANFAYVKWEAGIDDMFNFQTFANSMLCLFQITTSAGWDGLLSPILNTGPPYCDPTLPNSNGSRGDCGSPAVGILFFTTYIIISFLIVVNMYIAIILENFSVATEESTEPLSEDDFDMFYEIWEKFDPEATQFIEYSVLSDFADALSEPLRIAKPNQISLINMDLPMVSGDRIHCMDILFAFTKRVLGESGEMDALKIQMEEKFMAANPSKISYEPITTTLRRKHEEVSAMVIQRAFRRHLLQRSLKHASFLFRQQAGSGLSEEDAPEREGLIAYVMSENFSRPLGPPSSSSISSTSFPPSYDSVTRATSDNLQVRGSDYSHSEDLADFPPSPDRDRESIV
Sequence of hNav1.4 (P35499 whole entry): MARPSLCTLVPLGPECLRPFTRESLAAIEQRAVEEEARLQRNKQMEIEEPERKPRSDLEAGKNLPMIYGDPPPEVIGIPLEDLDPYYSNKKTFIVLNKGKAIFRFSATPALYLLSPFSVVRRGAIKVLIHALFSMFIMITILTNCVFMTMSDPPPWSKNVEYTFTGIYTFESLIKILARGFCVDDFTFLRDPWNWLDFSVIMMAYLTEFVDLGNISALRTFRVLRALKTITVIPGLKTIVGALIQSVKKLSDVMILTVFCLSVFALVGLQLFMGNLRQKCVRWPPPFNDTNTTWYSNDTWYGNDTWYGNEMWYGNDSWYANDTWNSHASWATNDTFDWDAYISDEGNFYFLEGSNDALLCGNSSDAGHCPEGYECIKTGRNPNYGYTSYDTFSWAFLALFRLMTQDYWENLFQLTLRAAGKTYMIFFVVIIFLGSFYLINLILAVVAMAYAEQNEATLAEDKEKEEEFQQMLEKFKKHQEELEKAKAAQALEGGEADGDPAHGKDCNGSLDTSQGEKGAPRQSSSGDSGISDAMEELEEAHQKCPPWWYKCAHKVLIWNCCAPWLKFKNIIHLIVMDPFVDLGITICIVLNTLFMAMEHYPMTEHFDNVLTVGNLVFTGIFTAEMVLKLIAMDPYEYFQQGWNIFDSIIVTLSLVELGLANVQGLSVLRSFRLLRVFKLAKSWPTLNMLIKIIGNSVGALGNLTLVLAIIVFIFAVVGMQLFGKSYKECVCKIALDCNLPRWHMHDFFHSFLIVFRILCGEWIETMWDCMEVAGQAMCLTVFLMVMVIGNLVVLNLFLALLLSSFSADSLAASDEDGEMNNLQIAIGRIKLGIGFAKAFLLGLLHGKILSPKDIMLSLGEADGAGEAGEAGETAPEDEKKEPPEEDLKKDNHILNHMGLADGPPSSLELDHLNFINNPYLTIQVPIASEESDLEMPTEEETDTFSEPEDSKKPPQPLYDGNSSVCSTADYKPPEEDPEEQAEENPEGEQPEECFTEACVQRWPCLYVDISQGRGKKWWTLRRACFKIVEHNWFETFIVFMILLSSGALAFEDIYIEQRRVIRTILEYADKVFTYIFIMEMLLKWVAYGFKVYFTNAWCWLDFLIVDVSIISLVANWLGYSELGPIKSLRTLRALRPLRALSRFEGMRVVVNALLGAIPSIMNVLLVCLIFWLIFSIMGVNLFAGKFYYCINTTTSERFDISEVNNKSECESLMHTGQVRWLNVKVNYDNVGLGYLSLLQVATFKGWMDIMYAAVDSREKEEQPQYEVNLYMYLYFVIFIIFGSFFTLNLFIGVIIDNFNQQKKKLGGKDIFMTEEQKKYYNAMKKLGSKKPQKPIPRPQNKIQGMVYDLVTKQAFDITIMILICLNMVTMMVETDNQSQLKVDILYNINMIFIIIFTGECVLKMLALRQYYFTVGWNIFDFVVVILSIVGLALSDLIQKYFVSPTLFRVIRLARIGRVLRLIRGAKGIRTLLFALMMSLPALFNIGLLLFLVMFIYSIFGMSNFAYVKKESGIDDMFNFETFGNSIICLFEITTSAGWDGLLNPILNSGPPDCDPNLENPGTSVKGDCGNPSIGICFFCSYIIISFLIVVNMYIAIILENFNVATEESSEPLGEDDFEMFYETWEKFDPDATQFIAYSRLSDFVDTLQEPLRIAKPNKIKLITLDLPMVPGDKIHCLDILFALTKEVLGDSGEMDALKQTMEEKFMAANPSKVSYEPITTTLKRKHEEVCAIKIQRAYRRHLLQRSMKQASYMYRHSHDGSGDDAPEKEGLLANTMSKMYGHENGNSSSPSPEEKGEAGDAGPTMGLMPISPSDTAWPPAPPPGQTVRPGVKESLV

SMILES | Nav1.4/Nav1.7 ([1]; ratio of PX IC50 values) | IC50 [2, 3] | IC50 [1, 3] [nM] | also measured
CCCC[C@@H]1NC(=O)[C@H](Cc2c[nH]c3ccccc23)NC(=O)[C@H](CCCCN)NC(=O)[C@H](CCC(N)=O)NC(=O)[C@@H](NC(=O)[C@H](Cc2ccc(O)cc2)NC(=O)[C@@H](N)Cc2cn(CCOCCOCCOCCOCCOCCOCCOCCOCCOCCOCCOCCOCCOCCOCCOCCOCCOCCOCCOCCOCCOCCOCCOCCNC(=O)c3cc(CNC(=O)CSCc4ccccc4)cc(C(=O)NCCOCCOCCOCCOCCOCCOCCOCCOCCOCCOCCOCCOCCOCCOCCOCCOCCOCCOCCOCCOCCOCCOCCOCCn4cc(C[C@H](N)C(=O)N[C@@H](Cc5ccc(O)cc5)C(=O)N[C@H]5CSSC[C@@H]6NC(=O)[C@@H]7CSSC[C@@H](C(=O)N[C@@H](CCCNC(=N)N)C(=O)N[C@@H](CCCCN)C(=O)N[C@H](C(=O)N[C@H](C(N)=O)[C@@H](C)CC)[C@@H](C)CC)NC(=O)[C@H](Cc8c[nH]c9ccccc89)NC(=O)[C@H](CC(C)C)NC(=O)[C@H](CCCCN)NC(=O)[C@H](CSSC[C@H](NC(=O)[C@H]([C@@H](C)O)NC(=O)[C@H](Cc8c[nH]c9ccccc89)NC(=O)[C@H](CCCC)NC(=O)[C@H](Cc8c[nH]c9ccccc89)NC(=O)[C@H](CCCCN)NC(=O)[C@H](CCC(N)=O)NC5=O)C(=O)N[C@@H](CC(=O)O)C(=O)N[C@@H](CO)C(=O)N[C@@H](CCCCN)C(=O)N[C@@H](CCCNC(=N)N)C(=O)N[C@@H](C)C(=O)N7)NC(=O)[C@H](CCCNC(=N)N)NC(=O)[C@H](CC(C)C)NC(=O)CNC(=O)[C@H](CCC(=O)O)NC6=O)nn4)c3)nn2)CSSC[C@@H]2NC(=O)[C@@H]3CSSC[C@@H](C(=O)N[C@@H](CCCNC(=N)N)C(=O)N[C@@H](CCCCN)C(=O)N[C@H](C(=O)N[C@H](C(N)=O)[C@@H](C)CC)[C@@H](C)CC)NC(=O)[C@H](Cc4c[nH]c5ccccc45)NC(=O)[C@H](CC(C)C)NC(=O)[C@H](CCCCN)NC(=O)[C@H](CSSC[C@H](NC(=O)[C@H]([C@@H](C)O)NC(=O)[C@H](Cc4c[nH]c5ccccc45)NC1=O)C(=O)N[C@@H](CC(=O)O)C(=O)N[C@@H](CO)C(=O)N[C@@H](CCCCN)C(=O)N[C@@H](CCCNC(=N)N)C(=O)N[C@@H](C)C(=O)N3)NC(=O)[C@H](CCCNC(=N)N)NC(=O)[C@H](CC(C)C)NC(=O)CNC(=O)[C@H](CCC(=O)O)NC2=O [Homodimeric Conjugate No. 2, Bis-{Atz(PEG23*)-[Nle6]JzTx-V(1-29)}-5-((2-(benzylthio)acetamido)methyl)isophthalamide] | 5 and 3 | 720 nM and 1180 nM | – | –
CC[C@H](C)[C@H](NC(=O)[C@H](CCCCN)NC(=O)[C@H](CCCNC(=N)N)NC(=O)[C@@H]1CSSC[C@@H]2NC(=O)[C@H](C)NC(=O)[C@H](CCCNC(=N)N)NC(=O)[C@H](CCCCN)NC(=O)[C@H](CO)NC(=O)[C@H](CC(=O)O)NC(=O)[C@@H]3CSSC[C@H](NC(=O)[C@H](CCCNC(=N)N)NC(=O)[C@H](CC(C)C)NC(=O)CNC(=O)[C@H](CCC(=O)O)NC(=O)[C@H](CSSC[C@H](NC(=O)[C@@H](N)Cc4ccc(O)cc4)C(=O)N[C@@H](CCC(N)=O)C(=O)N[C@@H](CCCCN)C(=O)N[C@@H](Cc4c[nH]c5ccccc45)C(=O)N[C@@H](CCSC)C(=O)N[C@@H](Cc4c[nH]c5ccccc45)C(=O)N[C@@H]([C@@H](C)O)C(=O)N3)NC2=O)C(=O)N[C@@H](CCCCN)C(=O)N[C@@H](CC(C)C)C(=O)N[C@@H](Cc2c[nH]c3ccccc23)C(=O)N1)C(=O)N[C@@H](CCC(=O)O)C(N)=O [compound 70] | 43 | > 10000 nM | 11300 | Nav1.5/Nav1.7 ([2]; ratio of PX IC50 values): >38
C#CC[C@@H]1NC(=O)[C@@H]2CSSC[C@H](NC(=O)[C@H](Cc3ccc(O)cc3)NC(=O)[C@@H](N)CC#N)C(=O)N[C@@H](CCC(N)=O)C(=O)N[C@@H](CCCCN)C(=O)N[C@@H](Cc3c[nH]c4ccccc34)C(=O)N[C@@H](CCCC)C(=O)N[C@@H](Cc3c[nH]c4ccccc34)C(=O)N[C@@H]([C@@H](C)O)C(=O)N[C@H]3CSSC[C@H](NC(=O)[C@H](CCCNC(=N)N)NC(=O)[C@H](CC(C)C)NC(=O)CNC1=O)C(=O)N[C@@H](CCCCN)C(=O)N[C@@H](CC(C)C)C(=O)N[C@@H](Cc1c[nH]c4ccccc14)C(=O)N[C@H](C(=O)N[C@@H](CCCNC(=N)N)C(=O)N[C@@H](CCCCN)C(=O)N[C@@H](CCC(=O)O)C(=O)N[C@H](C(N)=O)[C@@H](C)CC)CSSC[C@H](NC(=O)[C@H](C)NC(=O)[C@H](CCCNC(=N)N)NC(=O)[C@H](CCCCN)NC(=O)[C@H](CO)NC(=O)[C@H](CC(=O)O)NC3=O)C(=O)N2 [compound 395] | – | – | – | IC50 ([1]; tonic block): 62.5 nM and 212 nM; IC50 ([2]; tonic block): 710 nM
CCCC[C@@H]1NC(=O)[C@H](Cc2c[nH]c3ccccc23)NC(=O)[C@H](CCCCN)NC(=O)[C@H](CCC(N)=O)NC(=O)[C@@H](NC(=O)[C@H](Cc2ccc(O)cc2)NC(=O)[C@@H](N)CCC)CSSC[C@@H]2NC(=O)[C@@H]3CSSC[C@@H](C(=O)N[C@@H](CCCNC(=N)N)C(=O)N[C@@H](CCCCN)C(=O)N[C@H](C(=O)N[C@H](C(N)=O)[C@@H](C)CC)[C@@H](C)CC)NC(=O)[C@H](Cc4c[nH]c5ccccc45)NC(=O)[C@H](CC(C)C)NC(=O)[C@H](CCCCN)NC(=O)[C@H](CSSC[C@H](NC(=O)[C@H]([C@@H](C)O)NC(=O)[C@H](Cc4c[nH]c5ccccc45)NC1=O)C(=O)N[C@@H](CC(=O)O)C(=O)N[C@@H](CO)C(=O)N[C@@H](CCCCN)C(=O)N[C@@H](CCCNC(=N)N)C(=O)N[C@@H](C)C(=O)N3)NC(=O)[C@H](CCCNC(=N)N)NC(=O)[C@H](CC(C)C)NC(=O)CNC(=O)[C@H](CCC(=O)O)NC2=O [compound 369] | – | 490 nM | 11.6 | –
CCCC[C@@H]1NC(=O)[C@H](Cc2c[nH]c3ccccc23)NC(=O)[C@H](CCCCN)NC(=O)[C@H](CCC(N)=O)NC(=O)[C@@H](NC(=O)[C@H](Cc2ccc(O)cc2)NC(=O)[C@H](N)CC(C)C)CSSC[C@@H]2NC(=O)[C@@H]3CSSC[C@@H](C(=O)N[C@@H](CCCNC(=N)N)C(=O)N[C@@H](CCCCN)C(=O)N[C@H](C(=O)N[C@H](C(N)=O)[C@@H](C)CC)[C@@H](C)CC)NC(=O)[C@H](Cc4c[nH]c5ccccc45)NC(=O)[C@H](CC(C)C)NC(=O)[C@H](CCCCN)NC(=O)[C@H](CSSC[C@H](NC(=O)[C@H]([C@@H](C)O)NC(=O)[C@H](Cc4c[nH]c5ccccc45)NC1=O)C(=O)N[C@@H](CC(=O)O)C(=O)N[C@@H](CO)C(=O)N[C@@H](CCCCN)C(=O)N[C@@H](CCCNC(=N)N)C(=O)N[C@@H](C)C(=O)N3)NC(=O)[C@H](CCCNC(=N)N)NC(=O)[C@H](CC(C)C)NC(=O)CNC(=O)[C@H](CCC(=O)O)NC2=O [compound 373] | 190 | 410 nM | 28.7 | –
C#CC[C@H](N)C(=O)NCCOCCOCCOCCOCCC(=O)NCCCC[C@@H]1NC(=O)[C@H](CCCNC(=N)N)NC(=O)[C@H](CCCCN)NC(=O)[C@H](CO)NC(=O)[C@H](CC(=O)O)NC(=O)[C@@H]2CSSC[C@@H]3NC(=O)[C@H](CCCNC(=N)N)NC(=O)[C@H](CC(C)C)NC(=O)CNC(=O)[C@H](CCC(=O)O)NC(=O)[C@H](CSSC[C@H](NC(=O)[C@H](Cc4ccc(O)cc4)NC(=O)[C@@H](N)CC#N)C(=O)N[C@@H](CCC(N)=O)C(=O)N[C@@H](CCCCN)C(=O)N[C@@H](Cc4c[nH]c5ccccc45)C(=O)N[C@@H](CCCC)C(=O)N[C@@H](Cc4c[nH]c5ccccc45)C(=O)N[C@@H]([C@@H](C)O)C(=O)N2)NC(=O)[C@H](CSSC[C@@H](C(=O)N[C@@H](CCCNC(=N)N)C(=O)N[C@@H](CCCCN)C(=O)N[C@H](C(=O)N[C@H](C(N)=O)[C@@H](C)CC)[C@@H](C)CC)NC(=O)[C@H](Cc2c[nH]c4ccccc24)NC(=O)[C@H](CC(C)C)NC(=O)[C@H](CCCCN)NC3=O)NC1=O [compound 380] | – | – | – | Nav1.4/Nav1.7 ([1]; ratio of PX tonic IC50 values): 0; Nav1.5/Nav1.7 ([2]; ratio of PX tonic IC50 values): 0

Source: patent US9636418B2 (priority 2013, dated 2017)
